Test results as given in patent publication US20130065833A1, “ALKYLATED SP-B PEPTOID COMPOUNDS AND RELATED LUNG SURFACTANT COMPOSITIONS” (Northwestern University, priority 2010, published 2013).

Experiment: Pulsating bubble surfactometry (PBS), dynamic-mode cycling at 20 cpm
Format: physicochemical
Settings: 37° C.; for γmax: time point not stated; for % comp (percent SA compression to reach 20 mN m^−1): PBS dynamic-mode, 20 cpm, 100*[(SAmax−SA20)/(SAmax)]
Description: The maintenance of good surfactant activity during the dynamic changes in volume or film surface area at the a/l interface was assessed via bubble pulsation in PBS dynamic-mode. This method permits a simplified evaluation of in vitro dynamic film behavior. (Seurynck, S. L., Brown, N. J., Wu, C. W., Germino, K. W., Kohlmeir, E. K., Ingenito, E. P., Glucksberg, M. R., Barron, A. E., and Johnson, M. (2005) J. Appl. Physiol. 99, 624-633.) The γ-surface area (SA) data loops in FIG. 4B for each lipid-peptoid mixture are one representative pulsation cycle at 20 cycles per minute (cpm) after five minutes at 37° C., with bubble expansion in a clockwise loop direction.
The absence of low-γ data in some loops results from the inability of the image analysis system to trace the bubble shape in this regime. The highly compressed state of the film, which enables it to reach low γ, often causes significant bubble shape deformation, eliminating the possibility of tracing the bubble to obtain SA or employing the ellipsoidal Laplace equation to calculate γ. […] Visual, real-time bubble inspection confirmed that significant bubble deformation occurred and that γ reached near-zero in these films.
The lipids DPPC, POPG, and PA were individually dissolved in a chloroform/methanol solution (3/1 [v/v]) to a known concentration (˜2 or 4 mg mL^−1). Single-lipid solutions were then combined by volume at the ratio of DPPC:POPG:PA, 68:22:9 [wt:wt:wt] and to a known total lipid concentration (˜2 mg mL^−1). This well-characterized lipid formulation, the Tanaka Lipids (TL), is considered an adequate mimic of the non-protein (lipid) fraction of LS. The peptides and peptoids were individually dissolved in methanol from a lyophilized powder to a known concentration (1-2 mg mL^−1). For the PBS and LWSB/FM studies, the peptides and peptoids were added to the TL lipid solution at 2.16 mol % (˜10-12 absolute wt %, see Table 1), and the final solution was diluted to ˜1 mg lipid mL^−1. For comparative purposes, the inclusion of peptide/peptoid at 2.16 mol % corresponds to 10 wt % SP-B1-25 relative to the total lipid content (9.1 absolute wt %). Porcine SP-B was dissolved to a known concentration in chloroform/methanol and added to the TL solution at 0.72 mol %, corresponding to roughly 10 wt % of the monomer unit relative to the total lipid content (9.1 absolute wt %). For PBS and LWSB experiments, the standard deviation of the mean (a) was reported.
A commercial pulsating bubble surfactometry (PBS) instrument (General Transco, Largo, FL), modified with a direct, real-time imaging system, which has been previously described and validated in detail, was utilized to obtain both static-mode and dynamic-mode data. Samples were dried to a pellet from chloroform/methanol 3/1 [v/v] using a DNA 120 speedvac (Thermo Electron, Holbrook, N.Y.). The pellet was resuspended in buffer (150 mM NaCl, 10 mM HEPES, 5 mM CaCl2, pH 6.9) to 1.0 mg lipid mL^−1, with a known final volume of 70 μL. Samples were mixed with a pipette 20 times, sonicated with a Fisher Model 60 probe sonicator for two 15-second spurts, and then mixed again 20 times to form a dispersed suspension. Samples were then loaded into a small plastic sample chamber (General Transco) using a modified leak-free methodology. […]

Row | Substance | γmin (PBS dynamic-mode in a TL film) | γmax (PBS dynamic-mode in a TL film) [mN m^−1] | % comp (percent SA compression to reach 20 mN m^−1) [%]
1 | Nspe8-NLys*-Nspe2-NLys2-Nspe4-NLys-Nspe2 [peptoid 1] | near-zero | 46 | ~26
2 | Noct2-Nspe6-NLys-Nspe2-NLys2-Nspe4-NLys-Nspe2 [peptoid 3] | – | ~35 | 12
